Reference: ChEMBL document CHEMBL4118117, “Synthesis, biological evaluation, and molecular docking investigation of benzhydrol- and indole-based dual PPAR-γ/FFAR1 agonists” (Bioorg Med Chem Lett, 2018)
Activity calls are given as the source filed them. The calls are words filed in the database; no cut-off is given here.

Tests used:
[1] = molecular target: T1, Peroxisome proliferator-activated receptor gamma (Homo sapiens) (UniProt P37231); test: Transactivation of recombinant human N-terminal GAL4-DBD fused PPARgamma LBD expressed in reporter cells at 30 uM measured after 24 hrs by luciferase reporter gene assay relative to rosiglitazone; assay type: cell-based
T1 sequence (whole entry): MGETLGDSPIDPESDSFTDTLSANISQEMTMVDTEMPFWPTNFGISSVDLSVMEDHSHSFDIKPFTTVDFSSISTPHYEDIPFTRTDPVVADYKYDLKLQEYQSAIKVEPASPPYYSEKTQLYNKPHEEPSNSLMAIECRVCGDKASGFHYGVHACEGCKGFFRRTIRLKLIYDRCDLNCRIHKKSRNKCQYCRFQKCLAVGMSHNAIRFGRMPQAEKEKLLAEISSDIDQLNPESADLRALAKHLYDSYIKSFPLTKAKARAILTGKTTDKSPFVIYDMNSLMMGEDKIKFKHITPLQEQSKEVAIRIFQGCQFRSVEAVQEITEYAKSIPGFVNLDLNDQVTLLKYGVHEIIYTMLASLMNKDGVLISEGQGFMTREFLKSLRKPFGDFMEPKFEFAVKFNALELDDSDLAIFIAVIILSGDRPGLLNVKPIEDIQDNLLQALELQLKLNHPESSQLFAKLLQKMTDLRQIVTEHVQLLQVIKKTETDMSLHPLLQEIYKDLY

[2] = molecular target: Free fatty acid receptor 1 (Homo sapiens, UniProt O14842); test: Transactivation of recombinant human FFAR1 expressed in CHOK1 cells co-expressing Galpha15 assessed as increase in calcium flux measured after 20 secs for 100 secs by FLIPR assay; assay type: functional, cell-based
[3] = molecular target: T1, Peroxisome proliferator-activated receptor gamma (Homo sapiens); test: Transactivation of recombinant human N-terminal GAL4-DBD fused PPARgamma LBD expressed in reporter cells at 30 uM measured after 24 hrs by luciferase reporter gene assay relative to control; assay type: cell-based
[4] = molecular target: T2, Peroxisome proliferator-activated receptor gamma (Homo sapiens, UniProt P37231); test: Transactivation of recombinant human N-terminal GAL4-DBD fused PPARgamma LBD expressed in reporter cells measured after 24 hrs by luciferase reporter gene assay; assay type: cell-based
T2 sequence (P37231 whole entry): T1 sequence (whole entry)

Mus musculus [5] = test: Antihyperglycemic activity in established high fat diet-induced obese mouse assessed as reduction in blood glucose level at 10 mg/kg, iv administered once daily for 14 days measured at 1 hr post dose on day 7 and 14 during compound dosing; assay type: functional, organism-based
Mus musculus [6] = test: Antihyperglycemic activity in established high fat diet-induced obese mouse assessed as reduction in blood glucose level at 10 mg/kg, iv administered once daily for 14 days measured at 1 hr post dose on day 7 and 14 during compound dosing relative to rosiglitazone; assay type: functional
Mus musculus [7] = test: Antihyperlipidemic activity in established high fat diet-induced obese mouse assessed as reduction in plasma triglyceride level at 10 mg/kg, iv administered once daily for 14 days measured at 1 hr post dose on day 7 and 14 during compound dosing by colorimetric method relative to rosiglitazone; assay type: functional
Mus musculus [8] = test: Antihyperglycemic activity in established high fat diet-induced obese mouse assessed as reduction in body weight at 10 mg/kg, iv administered once daily for 14 days; assay type: functional, organism-based
Mus musculus [9] = test: Antihyperglycemic activity in established high fat diet-induced obese mouse assessed as reduction in blood glucose level at 10 mg/kg, iv administered once daily for 14 days measured at 1 hr post dose on day 7 and 14 during compound dosing in presence of glimepride; assay type: functional, organism-based
Mus musculus [10] = test: Antihyperglycemic activity in established high fat diet-induced obese mouse assessed as reduction in blood glucose level at 10 mg/kg, iv administered once daily for 14 days measured at 1 hr post dose on day 7 and 14 during compound dosing in presence of rosiglitazone; assay type: functional, organism-based

Chain of Free fatty acid receptor 1 (O14842 whole entry, the tested form may be a part): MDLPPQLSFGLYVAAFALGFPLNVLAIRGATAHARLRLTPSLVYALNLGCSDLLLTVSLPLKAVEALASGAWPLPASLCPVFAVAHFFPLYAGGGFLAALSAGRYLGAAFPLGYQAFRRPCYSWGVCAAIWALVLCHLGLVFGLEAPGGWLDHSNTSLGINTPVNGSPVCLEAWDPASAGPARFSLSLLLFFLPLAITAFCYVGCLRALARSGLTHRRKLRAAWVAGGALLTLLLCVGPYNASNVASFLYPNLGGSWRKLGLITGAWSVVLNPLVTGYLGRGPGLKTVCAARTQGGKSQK

fold change (FC) [3]	EC50 ([2]; read-out: EC50)	SMILES	Activity [1]	EC50 [2]	further results
		O=C1NC(=O)C(Cc2ccc(OCCn3c(-c4ccccc4)cc4ccccc43)cc2)S1 (stereo not drawn)	34.9%	Not Active	
29.7	4.31 µM	O=C1NC(=O)C(Cc2ccc(OCCn3cnc4ccccc43)cc2)S1 (stereo not drawn)	69.8%		EC50 [4]: 2.32 µM
	0.24 µM	CCCCC/C=C/C/C=C/C/C=C/CCCCC(=O)O			
		O=C1NC(=O)C(Cc2ccc(OCCOc3cccc4ccccc34)cc2)S1 (stereo not drawn)	13.3%	Not Active	
		Cc1ccccc1C(OCCOc1ccc(CC2SC(=O)NC2=O)cc1)c1ccccc1 (stereo not drawn)	4.4%	Not Active	
		O=C1NC(=O)C(Cc2ccc(OCCOC(c3ccccc3)c3ccc(Cl)cc3)cc2)S1 (stereo not drawn)	10.7%	Not Active	
56.1	2.19 µM	O=C1NC(=O)C(Cc2ccc(OCCn3ccc4ccccc43)cc2)S1 (stereo not drawn)	130%		EC50 [4]: 3.94 µM; Activity (Mus musculus [5]): Active
43.1		CN(CCOc1ccc(CC2SC(=O)NC2=O)cc1)c1ccccn1 (stereo not drawn)			Activity (Mus musculus [8]): Active; Activity (Mus musculus [9]): Active
> 0.01	11.3 µM	O=C1NC(=O)C(Cc2ccc(OCCOC(c3ccccc3)c3ccc(C(F)(F)F)cc3)cc2)S1 (stereo not drawn)	inactive		
4	21.3 µM	O=C1NC(=O)C(Cc2ccc(OCCOC(c3ccccc3)c3ccccc3)cc2)S1 (stereo not drawn)	9.3%		Activity (Mus musculus [5]): Active
		CCC1=C(C)CN(C(=O)NCCc2ccc(S(=O)(=O)NC(=O)N[C@H]3CC[C@H](C)CC3)cc2)C1=O			Activity (Mus musculus [8]): Active; Activity (Mus musculus [10]): Active
		O=C1NC(=O)C(Cc2ccc(OCCn3c(CO)nc4ccccc43)cc2)S1 (stereo not drawn)	39.5%	Not Active	

SMILES	fold change (FC) [3]	EC50 ([2]; read-out: EC50)	Activity [1]	EC50 [2]	further results
O=C1NC(=O)C(Cc2ccc(OCCn3ccc4ccc(Cl)cc43)cc2)S1 (stereo not drawn)		5.06 µM	83.7%		EC50 [4]: 4.51 µM; Activity (Mus musculus [5]): Active; fold change (FC) (Mus musculus [6]): 6; fold change (FC) (Mus musculus [7]): 3.5; Activity (Mus musculus [8]): Active
COc1ccc(C(OCCOc2ccc(CC3SC(=O)NC3=O)cc2)c2ccccc2)cc1 (stereo not drawn)		17.8 µM	12.1%		Activity (Mus musculus [5]): Active; fold change (FC) (Mus musculus [7]): 5.5
